This passage reports AC50 and activity change, negative = toxicity results from PubChem BioAssay AID493099 (Broad Institute, 2011).

Broadly, the AC50 is the midpoint of the concentration-response curve, whichever way the signal moves.

Active and inactive are the calls of the source. How the calls were made is not given here.

One assay relates to NIH-3T3 viability with fluconazole, Alamar Blue, 48 h. The assay is described as follows: PubChem AID 493099.
Details: not given
`COc1ccc(NC(=O)Cn2c3ccccc3c3nc4n(c(=O)c32)CCS4)cc1`: the AC50 is 6.04 µM. The same measure, in the same setting: with `O=C(Cn1c2ccccc2c2nc3n(c(=O)c21)CCS3)N1CCCC1` the figure was 19.7 µM. For `CCN(CC)C(=O)Cn1c2ccccc2c2nc3n(c(=O)c21)CCS3`, the AC50 is > 26 µM (inactive). Take `O=C(Cn1nc(-c2ccccc2)c2cc(Cl)ccc21)N1CCOCC1`: the AC50 was > 26 µM (inactive). Regarding `Cc1ccc(N2CCN(C(=O)c3ccc(Cl)cc3)CC2)nc1`, the AC50 is > 26 µM (inactive).

Tested on in another assay: not listed separately
Briefly: PubChem AID 493099. To be noted: NIH-3T3 viability with fluconazole, Alamar Blue, 48 h; at 2.6 µM (top of the series).
Regarding `COc1ccc2c(c1)c1nc3n(c(=O)c1n2CC(=O)N1CCC(C)CC1)CCS3`, the activity change, negative = toxicity is 18.1% (inactive).

The same assay, now with this note: NIH-3T3 viability with fluconazole, Alamar Blue, 48 h; at 26 µM (top of the series).
`COC(=O)Cn1c(-c2ccccc2)nc2ccccc21`: the activity change, negative = toxicity is -4.41% (inactive).

On to `c1ccc(-c2n[nH]c3ccccc23)cc1`, for which the activity change, negative = toxicity is -5.62% (inactive). `O=C(C1CCCCC1)N1CCN(c2ccccn2)CC1`: the activity change, negative = toxicity is -19.3% (inactive). Consider `O=C(c1ccc(Cl)cc1)N1CCN(c2nc3ccccc3s2)CC1`, for which the activity change, negative = toxicity is -24% (inactive). Still for that read-out and setting: with `COC(=O)Cn1nc(-c2ccc(C)cc2)c2ccccc21` the figure was 0.677% (inactive); with `O=C(c1ccccc1Cl)N1CCN(c2ccccn2)CC1`, -7.93% (inactive); with `O=C(Cn1c2ccccc2c2nc3n(c(=O)c21)CCS3)NCCc1ccc(Cl)cc1`, -7.62% (inactive). The same measure, in the same setting: as for `COC(=O)Cn1nc(-c2ccccc2)c2cc(Cl)ccc21`, the figure is -7.62% (inactive). Same read-out and setting: with `O=C(c1cccc(Cl)c1)N1CCN(c2ccccn2)CC1` the figure was -24.6% (inactive). As for `CCOC(=O)c1nn(Cc2ccc(Cl)cc2)c2ccccc12`, the activity change, negative = toxicity was -28.4% (inactive). With `O=c1c2[nH]c3ccc(F)cc3c2nc2n1CCS2`, the activity change, negative = toxicity was 7.11% (inactive). Same read-out and setting: as for `O=C(Cn1nc(-c2ccccc2)c2ccccc21)N1CCc2ccccc2C1`, the figure is -10.2% (inactive); as for `O=C(Cn1c2ccccc2c2ccncc21)N1CCCCC1`, -31.2% (inactive); as for `O=C(O)c1c2ccccc2nn1Cc1ccc(Cl)cc1`, -7.54% (inactive).

Turning to `CCCNC(=O)Cn1nc(-c2ccccc2)c2cc(Cl)ccc21`, the activity change, negative = toxicity is -7.48% (inactive). Take `O=C(Cn1c2ccc(F)cc2c2nc3n(c(=O)c21)CCS3)N1CCCC1`: the activity change, negative = toxicity was -34% (inactive). On the same count and under the same terms, with `O=C(O)Cn1nc(-c2ccccc2)c2ccccc21` the figure was -27.1% (inactive). With `COc1cccnc1N1CCN(C(=O)c2ccc(Cl)cc2)CC1`, the activity change, negative = toxicity is -12.3% (inactive). On to `COc1ccc2c(c1)c1nc3n(c(=O)c1n2CC(=O)N1CCC(Cc2ccccc2)CC1)CCS3`, for which the activity change, negative = toxicity is -12% (inactive). For `O=C(Cn1c2ccc(F)cc2c2nc3n(c(=O)c21)CCS3)N1CCCCCC1`, the activity change, negative = toxicity is -19.1% (inactive). With `COC(=O)Cn1nc(-c2ccccc2)c2ccccc21`, the activity change, negative = toxicity is -16.9% (inactive). As for `Cc1nn(S(C)(=O)=O)c2ccccc12`, the activity change, negative = toxicity was -23.9% (inactive). With `N#Cc1cccnc1N1CCN(C(=O)c2ccc(Cl)cc2)CC1`, the activity change, negative = toxicity was 6.33% (inactive). Turning to `N#Cc1ccc(C(=O)N2CCN(c3ccccn3)CC2)cc1`, the activity change, negative = toxicity was 4.67% (inactive). As for `CC1CCN(C(=O)Cn2c3ccccc3c3nc4n(c(=O)c32)CCS4)CC1`, the activity change, negative = toxicity was -20.3% (inactive). The same measure, in the same setting: with `N#Cc1ccc(N2CCN(C(=O)c3ccc(Cl)cc3)CC2)nc1` the figure was -15.6% (inactive); with `O=C(O)c1nn(Cc2ccc(Cl)cc2)c2ccccc12`, -9.65% (inactive).

Regarding `Cc1ccc(C(=O)N2CCN(c3ccccn3)CC2)cc1`, the activity change, negative = toxicity is 5.98% (inactive). With `CCOC(=O)c1c2ccccc2nn1Cc1ccc(Cl)cc1`, the activity change, negative = toxicity is 3.93% (inactive). Same read-out and setting: with `O=c1c2[nH]c3ccccc3c2nc2n1CCS2` the figure was -21.3% (inactive); with `O=C(c1ccc(Cl)cc1)N1CCN(c2ncccc2C(F)(F)F)CC1`, -21.5% (inactive). Still for that read-out and setting: with `COCCC(=O)N1CCN(c2ccccn2)CC1` the figure was -16% (inactive); with `CC1CCN(C(=O)Cn2c3ccccc3c3nc4n(c(=O)c32)CCCS4)CC1`, -25.8% (inactive); with `O=C(Cn1c2ccccc2c2nc3n(c(=O)c21)CCS3)N1CCCC1`, -17.5% (inactive).

Consider `COc1ccc(C(=O)N2CCN(c3ccccn3)CC2)cc1`, for which the activity change, negative = toxicity was -22.2% (inactive).

With `CCCCC(=O)N1CCN(c2ccccn2)CC1`, the activity change, negative = toxicity is -7.03% (inactive).

For the molecule `COC(=O)Cn1nc(-c2ccc(Cl)cc2)c2ccccc21`, the activity change, negative = toxicity was -11% (inactive). On to `CC(C)C(=O)N1CCN(c2ccccn2)CC1`, for which the activity change, negative = toxicity was 7.76% (inactive).

On to `O=C(Cn1nc(C(=O)N2CCCCC2)c2ccccc21)N1CCOCC1`, for which the activity change, negative = toxicity was -2.32% (inactive). In the case of `COC(=O)Cn1nc(C)c2ccccc21`, the activity change, negative = toxicity is -5.29% (inactive). As for `CNC(=O)Cn1nc(-c2ccccc2)c2ccccc21`, the activity change, negative = toxicity was -11.1% (inactive). Turning to `CCN(CC)C(=O)Cn1c2ccccc2c2nc3n(c(=O)c21)CCS3`, the activity change, negative = toxicity is -27% (inactive). For the molecule `O=C(c1ccc(Cl)cc1)N1CCN(c2ccc(C(F)(F)F)cn2)CC1`, the activity change, negative = toxicity is -6.38% (inactive). Same read-out and setting: with `Cc1ccnc(N2CCN(C(=O)c3ccc(Cl)cc3)CC2)c1` the figure was -11.8% (inactive); with `Cc1cccc(N2CCN(C(=O)c3ccc(Cl)cc3)CC2)n1`, -19.6% (inactive); with `CC1CCN(C(=O)Cn2c3ccc(F)cc3c3nc4n(c(=O)c32)CCCS4)CC1`, -15.8% (inactive). The same measure, in the same setting: as for `O=C(Cn1c2ccccc2c2nc3n(c(=O)c21)CCCS3)c1ccc(F)cc1`, the figure is -8.47% (inactive); as for `CCCNC(=O)Cn1nc(-c2ccccc2)c2ccccc21`, -5.82% (inactive).
